Measured values as given in patent publication US9708336B2, “Metallo-beta-lactamase inhibitors” (priority 2014, dated 2017).

Legend:
[1] = molecular target: VIM-1 (Pseudomonas aeruginosa (strain ATCC 15692 / DSM 22644 / CIP 104116 / JCM 14847 / LMG 12228 / 1C / PRS 101 / PAO1), UniProt A0A0F7KYQ8); experiment: Enzyme activity: determination of IC50, fluorescence assay with CCF2-FA substrate (VIM-1); assay type: biochemical; settings: fluorescence assay with CCF2-FA substrate; read-out: VIM-1 IC50
[2] = molecular target: IMP-1 (Serratia marcescens, UniProt P52699); experiment: biochemical; assay type: biochemical; settings: fluorescence assay with CCF2-FA substrate; read-out: IMP-1 IC50
Chain of IMP-1 (P52699 whole entry, looked up): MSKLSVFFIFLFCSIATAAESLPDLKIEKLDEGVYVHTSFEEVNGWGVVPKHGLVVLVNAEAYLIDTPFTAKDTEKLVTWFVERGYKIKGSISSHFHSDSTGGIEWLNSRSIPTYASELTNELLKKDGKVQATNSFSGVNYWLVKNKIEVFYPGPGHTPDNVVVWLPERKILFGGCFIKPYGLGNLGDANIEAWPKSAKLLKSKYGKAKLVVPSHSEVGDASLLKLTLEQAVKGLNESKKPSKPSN

[3] = test system: Serratia marcescens expressing IMP-1 (CL5741); experiment: Antibiotic potentiation activity: synergistic concentration (MITC95) with imipenem, OD600 growth; assay type: cell-based; settings: concentration giving 95% inhibition of bacterial growth
Outline: (§1)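 Inoculum: saline suspension of overnight colonies, 1:100 into 1.1× CAMHB. Imipenem 4 μg/ml final (alt. 1 μg/ml) + compound; 35 °C, 22–24 h; absorbance read-out.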

[4] = test system: Klebsiella pneumoniae expressing VIM-1 (IHMA599644); experiment: as above; assay type: cell-based; settings: concentration giving 95% inhibition of bacterial growth
Outline: as §1

[5] = test system: Escherichia coli expressing NDM-1 (CLB30005); experiment: as above; assay type: cell-based; settings: concentration giving 95% inhibition of bacterial growth
Outline: as §1

[6] = molecular target: NDM-1 (Klebsiella pneumoniae, UniProt C7C422); experiment: biochemical; assay type: biochemical; settings: fluorescence assay with CCF2-FA substrate; read-out: NDM-1 IC50
Chain of NDM-1 (C7C422 whole entry, looked up, species assumed): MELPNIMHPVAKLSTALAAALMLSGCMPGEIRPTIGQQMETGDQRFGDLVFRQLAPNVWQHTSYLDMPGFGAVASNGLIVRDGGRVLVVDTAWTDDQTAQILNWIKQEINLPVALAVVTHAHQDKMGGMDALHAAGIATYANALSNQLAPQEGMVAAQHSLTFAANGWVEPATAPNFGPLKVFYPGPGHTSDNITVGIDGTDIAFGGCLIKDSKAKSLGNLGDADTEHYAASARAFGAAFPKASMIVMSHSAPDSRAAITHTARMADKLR

SMILES	IC50 [1]	IC50 [2]	Serratia marcescens expressing IMP-1 (CL5741) MITC95 [3]	Klebsiella pneumoniae expressing VIM-1 (IHMA 599644) MITC95 [4]	Escherichia coli expressing NDM-1 (CLB 30005) MITC95 [5]	IC50 [6]
NS(=O)(=O)c1cccc(-c2ccc(C3(C(F)(F)F)OCCO3)nc2)c1-c1nn[nH]n1 [Example 22, 2-(2H-tetrazol-5-yl)-3-{6-[2-(trifluoromethyl)-1,3-dioxolan-2-yl]pyridin-3-yl}benzenesulfonamide]	26.7 nM	31.8 nM	6.25 µM	200 µM	1.563 µM	2 nM
C[C@H]1NC(=O)O[C@H]1c1ccc(-c2cccc(S(N)(=O)=O)c2-c2nnn[nH]2)cc1 [Example 23, 4′-[(4R,5S)-4-methyl-2-oxo-1,3-oxazolidin-5-yl]-2-(1H-tetrazol-5-yl)biphenyl-3-sulfonamide]	9.76 nM	4.36 nM	2.344 µM	50 µM	2.344 µM	0.637 nM
NS(=O)(=O)c1cccc(-c2ccc(C(O)C(F)F)cc2)c1-c1nnn[nH]1 (stereo not drawn) [Example 24, 4′-(2,2-difluoro-1-hydroxyethyl)-2-(1H-tetrazol-5-yl)biphenyl-3-sulfonamide]	124 nM	17.8 nM	3.125 µM	150 µM	1.563 µM	3.65 nM
N#CC1(c2ccc(-c3cccc(S(N)(=O)=O)c3-c3nnn[nH]3)cc2)CCOCC1 [Example 25, 4′-(4-cyanotetrahydro-2H-pyran-4-yl)-2-(1H-tetrazol-5-yl)biphenyl-3-sulfonamide]	45.5 nM	3.6 nM	12.5 µM	>200 µM	3.125 µM	< 0.637 nM
NS(=O)(=O)c1cccc(-c2ccc(C3CCNC3=O)cc2)c1-c1nnn[nH]1 (stereo not drawn) [Example 27, 4′-(2-oxopyrrolidin-3-yl)-2-(1H-tetrazol-5-yl)biphenyl-3-sulfonamide]	77.1 nM	13.1 nM	3.125 µM	200 µM	3.125 µM	2.23 nM
COC(=O)N1CCC(c2ccc(-c3cccc(S(N)(=O)=O)c3-c3nnn[nH]3)cc2)CC1 [Example 28, methyl 4-[3′-sulfamoyl-2′-(1H-tetrazol-5-yl)biphenyl-4-yl]piperidine-1-carboxylate]	26.7 nM	3.74 nM	12.5 µM	>200 µM	12.5 µM	0.972 nM
C[C@@H]1NC(=O)O[C@H]1c1ccc(-c2cccc(S(N)(=O)=O)c2-c2nnn[nH]2)cc1 [Example 29, 4′-[(4S,5S)-4-methyl-2-oxo-1,3-oxazolidin-5-yl]-2-(1H-tetrazol-5-yl)biphenyl-3-sulfonamide]	52.8 nM	12.1 nM	6.25 µM	200 µM	3.125 µM	1.49 nM
Cc1csc(-c2cccc(S(N)(=O)=O)c2-c2nn[nH]n2)n1 [Example 34, 3-(4-methyl-1,3-thiazol-2-yl)-2-(2H-tetrazol-5-yl)benzenesulfonamide]	1440 nM	3090 nM	150 µM	>200 µM	3.125 µM	151 nM
NS(=O)(=O)c1cccc(-c2cccc(F)n2)c1-c1nn[nH]n1 [Example 36, 3-(6-fluoropyridin-2-yl)-2-(2H-tetrazol-5-yl)benzenesulfonamide]	219 nM	790 nM	50 µM	75 µM	1.953 µM	38.7 nM
COc1cccc(-c2cccc(S(N)(=O)=O)c2-c2nn[nH]n2)n1 [Example 37, 3-(6-methoxypyridin-2-yl)-2-(2H-tetrazol-5-yl)benzenesulfonamide]	206 nM	1210 nM	50 µM	200 µM	2.344 µM	26.4 nM
COc1cncc(-c2cccc(S(N)(=O)=O)c2-c2nn[nH]n2)n1 [Example 40, 3-(6-methoxypyrazin-2-yl)-2-(2H-tetrazol-5-yl)benzenesulfonamide]	560 nM	3050 nM	200 µM	200 µM	3.125 µM	42.2 nM
NS(=O)(=O)c1cccc(-c2ccco2)c1-c1nn[nH]n1 [Example 41, 3-furan-2-yl-2-(2H-tetrazol-5-yl)benzenesulfonamide]	1150 nM	247 nM	9.375 µM	200 µM	0.3906 µM	30.4 nM
NS(=O)(=O)c1cccc(-c2cncs2)c1-c1nn[nH]n1 [Example 44, 2-(2H-tetrazol-5-yl)-3-(1,3-thiazol-5-yl)benzenesulfonamide]	294 nM	293 nM	12.5 µM	37.5 µM	0.3906 µM	34.6 nM
NS(=O)(=O)c1cccc(-c2cscn2)c1-c1nn[nH]n1 [Example 45, 2-(2H-tetrazol-5-yl)-3-(1,3-thiazol-4-yl)benzenesulfonamide]	496 nM	1210 nM	25 µM	50 µM	0.7813 µM	85 nM
NS(=O)(=O)c1cccc(-c2ccnc(F)c2)c1-c1nn[nH]n1 [Example 46, 3-(2-fluoropyridin-4-yl)-2-(2H-tetrazol-5-yl)benzenesulfonamide]	99.1 nM	302 nM	25 µM	28.13 µM	0.5859 µM	14.5 nM
NS(=O)(=O)c1cccc(-c2ccnnc2)c1-c1nn[nH]n1 [Example 47, 3-pyridazin-4-yl-2-(2H-tetrazol-5-yl)benzenesulfonamide]	5360 nM	4160 nM	50 µM	>200 µM	0.7813 µM	345 nM
NS(=O)(=O)c1cccc(-c2ccc(F)nc2)c1-c1nn[nH]n1 [Example 48, 3-(6-fluoropyridin-3-yl)-2-(2H-tetrazol-5-yl)benzenesulfonamide]	182 nM	644 nM	33.33 µM	66.67 µM	0.3906 µM	19.1 nM
Cn1nccc1-c1cccc(S(N)(=O)=O)c1-c1nn[nH]n1 [Example 49, 3-(1-methyl-1H-pyrazol-5-yl)-2-(2H-tetrazol-5-yl)benzenesulfonamide]	61.7 nM	4050 nM	150 µM	12.5 µM	0.5859 µM	21.6 nM
